{
  "source": "patent US8569343B2",
  "about": "“Oligomer-opioid agonist conjugates” (Nektar Therapeutics, priority 2007, dated 2013)",
  "key": {"[1]": {"target": "recombinant human delta opioid receptor (Homo sapiens, UniProt P41143)", "sequence (P41143 whole entry)": "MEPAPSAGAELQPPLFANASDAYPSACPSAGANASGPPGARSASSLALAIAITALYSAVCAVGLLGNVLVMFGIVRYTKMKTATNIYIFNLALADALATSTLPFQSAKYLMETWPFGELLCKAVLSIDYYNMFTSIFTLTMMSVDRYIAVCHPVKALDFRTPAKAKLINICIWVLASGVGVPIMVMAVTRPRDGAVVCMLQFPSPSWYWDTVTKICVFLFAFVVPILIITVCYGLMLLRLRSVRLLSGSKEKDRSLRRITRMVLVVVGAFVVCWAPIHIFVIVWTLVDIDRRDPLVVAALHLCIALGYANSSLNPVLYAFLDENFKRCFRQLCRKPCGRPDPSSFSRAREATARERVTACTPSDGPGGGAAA", "conditions": "GTP-γS binding, screened up to 10 μM in agonist and antagonist mode", "quoted_text": "The reaction is initiated by 0.3 nM [^35S]GTPγS for an additional 30 minutes incubation period. Test compound-induced increase of [^35S]GTPγS binding by 50 percent or more (≧50%) relative to the receptor subtype-specific agonist response indicates possible opiate receptor agonist activity."}, "[2]": {"target": "T1, cloned human kappa opioid receptor (Homo sapiens, UniProt P41145)", "T1 construct": "expressed in transfected cells; host or cells: CHO cells", "T1 sequence (P41145 whole entry)": "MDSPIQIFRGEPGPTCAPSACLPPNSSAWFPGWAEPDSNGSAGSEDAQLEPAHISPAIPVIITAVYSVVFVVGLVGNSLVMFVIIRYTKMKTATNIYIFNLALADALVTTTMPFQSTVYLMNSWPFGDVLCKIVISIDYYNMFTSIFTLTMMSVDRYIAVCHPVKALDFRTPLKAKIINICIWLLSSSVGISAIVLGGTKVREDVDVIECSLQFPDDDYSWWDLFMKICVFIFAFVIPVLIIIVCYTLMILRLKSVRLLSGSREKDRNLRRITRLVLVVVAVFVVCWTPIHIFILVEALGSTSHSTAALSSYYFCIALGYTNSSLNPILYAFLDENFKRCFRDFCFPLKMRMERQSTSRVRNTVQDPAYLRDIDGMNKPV", "experiment": "cell-based", "method": "The efficacy of the various PEG-opioid conjugates was measured by their ability to inhibit cAMP formation following receptor activation. Studies were conducted in CHO cells heterologously expressing the cloned human mu, kappa or delta opioid receptors. cAMP was measured using a cAMP HiRange homogenous time-resolved fluorescence assay (HTRF Assay), that is based on a competitive immunoassay principle (Cisbio, Cat. #62AM6PEC).\nBriefly, suspensions of cells expressing either the mu, kappa or delta opioid receptors were prepared in buffer containing 0.5 mM isobutyl-methyl xanthine (IBMX). […] EC50 values were calculated for each compound from a sigmoidal dose-response plot of concentrations versus maximum response. To determine if the compounds behaved as full or partial agonists in the system, the maximal response at the highest tested concentrations of compounds were compared to that produced by a known full agonist."}, "[3]": {"conditions": "inhibition of cAMP formation, 3 μM forskolin, tested upto 500 μM"}},
  "note": "pEC50: −log10 of the molar value. Like-named read-outs stand apart in the source and are kept apart here.",
  "data": [
    {"compound": "COCCOCCOCCO[C@H]1CC[C@@]2(O)[C@H]3Cc4ccc(O)c5c4[C@@]2(CCN3CC2CCC2)C1O5", "note": "(some centres unmarked) [6-O-mPEG3-Nalbuphine, 6-O-mPEG3-nalbuphine]", "values": [
      {"measurement": "effect at the delta opioid receptor", "setting": "[1]", "value": "no effect"}
    ]},
    {"compound": "COc1ccc2c3c1O[C@H]1C(O)CC[C@@]4(O)[C@@H](C2)N(C)CC[C@]314", "note": "(stereo partly drawn) [Hydroxycodone, α-6-hydroxycodone, reference compound]", "values": [
      {"measurement": "pEC50", "setting": "[2]", "value": "< 3.30"}
    ]},
    {"compound": "COCCO[C@H]1CC[C@@]2(O)[C@H]3Cc4ccc(OC)c5c4[C@@]2(CCN3C)[C@H]1O5", "note": "[α-6-mPEG1-O-Hydroxycodone, α-6-mPEG1-O-hydroxycodone]", "values": [
      {"measurement": "pEC50", "setting": "[2]; [3]", "value": "< 3.30"}
    ]},
    {"compound": "COCCOCCO[C@H]1CC[C@@]2(O)[C@H]3Cc4ccc(OC)c5c4[C@@]2(CCN3C)[C@H]1O5", "note": "[α-6-mPEG2-O-Hydroxycodone, α-6-mPEG2-O-hydroxycodone]", "values": [
      {"measurement": "pEC50", "setting": "[2]; [3]", "value": "< 3.30"}
    ]},
    {"compound": "COCCOCCOCCO[C@H]1CC[C@@]2(O)[C@H]3Cc4ccc(OC)c5c4[C@@]2(CCN3C)[C@H]1O5", "note": "[α-6-mPEG3-O-Hydroxycodone, α-6-mPEG3-O-hydroxycodone]", "values": [
      {"measurement": "pEC50", "setting": "[2]; [3]", "value": "< 3.30"}
    ]},
    {"compound": "COCCOCCOCCOCCO[C@H]1CC[C@@]2(O)[C@H]3Cc4ccc(OC)c5c4[C@@]2(CCN3C)[C@H]1O5", "note": "[α-6-mPEG4-O-Hydroxycodone, α-6-mPEG4-O-hydroxycodone]", "values": [
      {"measurement": "pEC50", "setting": "[2]", "value": "< 3.30"}
    ]},
    {"compound": "COCCOCCOCCOCCOCCO[C@H]1CC[C@@]2(O)[C@H]3Cc4ccc(OC)c5c4[C@@]2(CCN3C)[C@H]1O5", "note": "[α-6-mPEG5-O-Hydroxycodone, α-6-mPEG5-O-hydroxycodone]", "values": [
      {"measurement": "pEC50", "setting": "[2]; [3]", "value": "< 3.30"}
    ]},
    {"compound": "COCCOCCOCCOCCOCCOCCO[C@H]1CC[C@@]2(O)[C@H]3Cc4ccc(OC)c5c4[C@@]2(CCN3C)[C@H]1O5", "note": "[α-6-mPEG6-O-Hydroxycodone, α-6-mPEG6-O-hydroxycodone]", "values": [
      {"measurement": "pEC50", "setting": "[2]; [3]", "value": "< 3.30"}
    ]},
    {"compound": "COCCOCCOCCOCCOCCOCCOCCO[C@H]1CC[C@@]2(O)[C@H]3Cc4ccc(OC)c5c4[C@@]2(CCN3C)[C@H]1O5", "note": "[α-6-mPEG7-O-Hydroxycodone, α-6-mPEG7-O-hydroxycodone]", "values": [
      {"measurement": "pEC50", "setting": "[2]; [3]", "value": "< 3.30"}
    ]},
    {"compound": "COCCOCCOCCOCCOCCOCCOCCOCCOCCO[C@H]1CC[C@@]2(O)[C@H]3Cc4ccc(OC)c5c4[C@@]2(CCN3C)[C@H]1O5", "note": "[α-6-mPEG9-O-Hydroxycodone, α-6-mPEG9-O-hydroxycodone]", "values": [
      {"measurement": "pEC50", "setting": "[2]; [3]", "value": "< 3.30"}
    ]},
    {"compound": "α-6-mPEG1-O-codeine", "values": [
      {"measurement": "pEC50", "setting": "[2]", "value": "< 3.30"}
    ]},
    {"compound": "α-6-mPEG4-O-codeine", "values": [
      {"measurement": "pEC50", "setting": "[2]", "value": "< 3.30"}
    ]},
    {"compound": "α-6-mPEG5-O-codeine", "values": [
      {"measurement": "pEC50", "setting": "[2]", "value": "< 3.30"}
    ]},
    {"compound": "α-6-mPEG6-O-codeine", "values": [
      {"measurement": "pEC50", "setting": "[2]", "value": "< 3.30"}
    ]}
  ]
}
